For assay [1], the system named is Caco-2. Put plainly: Computed polar surface area (PSA) for the compound […]. The assay is classed as functional.
For assay [2], the system named is Caco-2. Put plainly: Substrate affinity was determined; passive. The note with it: Homo sapiens. The assay is classed as functional, cell-based.
The test system of assay [3] is Caco-2. Description: Cell membrane permeability for the compound determined by human Caco-2 monolayer assay (10e-5 cm/min). It counts as functional.

Regarding `Oc1ccc2c(n1)c(-c1ccccc1)cn2Cc1ccccc1`, the “3D PSA” value in assay [1] is given as 33.4.

`COc1ccc(-c2cn(Cc3ccccc3)c3ccc(O)nc23)cc1`: in assay [1], the “3D PSA” value stood at 45. Also, the Affinity entry in assay [2] is “passive”. The Pm in assay [3] is 90.5 10e-5*cm/min.

Take `COc1ccc(Cn2cc(-c3ccc(OC)cc3)c3nc(O)ccc32)cc1`: the “3D PSA” value in assay [1] is 55.1. For the same compound, the Affinity result in assay [2] is recorded as “passive”. Besides, the Pm in assay [3] is on record as 83 10e-5*cm/min.

Turning to `Nc1ncnc2c1c(-c1ccccc1)cn2Cc1ccccc1`, in assay [1], the “3D PSA” value was found to be 46.6.

For the compound `COc1ccc(Cn2cc(-c3ccc(OC)cc3)c3c(N)ncnc32)cc1`, the “3D PSA” value in assay [1] was found to be 69.2. The Affinity result in assay [2] is “passive”. Further, in assay [3], the Pm is recorded as 61.9 10e-5*cm/min.

Regarding `COc1ccc(-c2cn(Cc3ccccc3)c3ncnc(N)c23)cc1`, the “3D PSA” value in assay [1] is given as 58.2. For the same compound, the Affinity result in assay [2] was “passive”. Also, the Pm in assay [3] is given as 78.2 10e-5*cm/min.

These data come from ChEMBL document CHEMBL1134094, “Cell permeability as a parameter for lead generation in the protein Tyrosine kinase inhibition field” (2001).
